In this test the test system is Marrow Stromal Cells (MSCs). Put plainly: Intracellular calcium response of MSCs to oscillatory fluid flow in the presence of calcium channel blockers. Particulars: control 67.1±11.2.

Description: Calcium Imaging: Intracellular levels of Ca^2+ were quantified using a ratiometric imaging technique with the Ca^2+ sensitive dye Fura-2 Acetoxymethyl ester (Fura-2 AM). […] The ratio of the emission intensities F340/F380 is a quantitative measurement of intracellular calcium [Ca^2+]i.
Cells were cultured on UV transparent quartz slides for 3 days. Prior to exposure to OFF, cells were washed with PBS, incubated with 10 μM Fura-2 AM in A-MEM and 2% FBS for 30 min at 37° C., and then washed again with PBS. Following Fura-2 loading, the slides were mounted in a parallel plate flow chamber, and then fixed to the stage of a Nikon TE300 epi-fluorescent microscope (Technical Instruments SF, Burlingame, Calif.). The setup was left undisturbed for 30 min, during which the cells were perfused with media at 0.05 ml/min. Cells were then subjected to 3 minutes of OFF at 1 Hz with peak shear stress of 20 dynes/cm^2. […] Ratio images were recorded and analyzed using image analysis software (Metafluor; Universal Imaging, West Chester, Pa.). […]
Data analysis: Calcium imaging data was analyzed using the Rainflow cycle counting numerical procedure. This method identifies oscillations in the time history data and is used to quantify [Ca^2+]i responses from background noise. Calcium imaging data is expressed as the fraction of cells responding i SE and mean change in [Ca^2+]i±SE. […]

For `C/C=C(/C)C(=O)O[C@H]1C(C)=C2[C@H]([C@@H]1OC(=O)CCCCCCC)[C@@](C)(OC(C)=O)C[C@H](OC(=O)CCC)[C@@]1(O)[C@H]2OC(=O)[C@@]1(C)O` [Thapsigargin], the “percentage of cells that responded to OFF with a change in intracellular calcium” value (50 nM, empties intracellular calcium stores, significant decrease (p<0.05)) is reported as 0±0%.

For `[Cl][Gd]([Cl])[Cl]` [gadolinium chloride], where the note is “10 μM, stretch activated channel blocker, not different from control”, the “percentage of cells that responded to OFF with a change in intracellular calcium” value amounted to 61.1±14.7%.

Values taken from US20070117203A1, “Modulation of stem and progenitor cell growth by oscillatory fluid flow” (priority 2005, published 2007).
